Test results: patent US10696693B2, “Fused imidazole derivatives as TGF-beta inhibitors” (Rigel Pharmaceuticals, Inc., priority 2014, dated 2020)
Like-named read-outs stand apart in the source and are kept apart here.

Experiments:
GDF8 = experiment: AlphaScreen SureFire p-SMAD3 (Ser423/425) assay, GDF8-stimulated cells; assay type: cell-based
In short: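 A SureFire AlphaScreen assay measured phosphorylation of endogenous SMAD-3 at Ser423/425 in cell lysates. Cells were treated with three-fold serially diluted compounds in DMSO for about 10 minutes, then stimulated with GDF8. After medium removal, cells were lysed in 1× Lysis Buffer (about 25 μL) with gentle shaking for 5-10 minutes.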

TGF-β = experiment: AlphaScreen SureFire p-SMAD3 (Ser423/425) assay, TGF-β-stimulated cells; assay type: cell-based
In short: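 The p-SMAD-3 (Ser423/425) SureFire assay measured phosphorylation of endogenous SMAD-3 in cell lysates. Cells were plated overnight in collagen-coated plates, exposed to three-fold serially diluted compounds for about 10 minutes, then stimulated with TGFβ. Lysates (5 μL) received acceptor bead mix for 2 hours, then donor beads for 1½ hours before AlphaScreen reading.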

[1] = Mus musculus, MPC-11, p-SMAD3 (Ser423/425) AlphaScreen in cell lysate, MPC11, GDF8 stimulation, read-out: GDF8: inhibition of GDF8 signaling, GDF pSMAD (MPC11)
[2] = Mus musculus, p-SMAD3 (Ser423/425) AlphaScreen in cell lysate, MPC-11, TGF-β stimulation, read-out: TGF-β: inhibition of TGF-β signaling, TGF-β pSMAD (MPC-11)
[3] = Mus musculus, MPC-11, read-out: GDF8: inhibition of GDF8 signaling, GDF pSMAD (MPC11), p-SMAD3 (Ser423/425) AlphaScreen in cell lysate, GDF8 stimulation
[4] = Mus musculus, MPC-11, read-out: TGF-β: inhibition of TGF-β signaling, TGF-β pSMAD (MPC-11), p-SMAD3 (Ser423/425) AlphaScreen in cell lysate, TGF-β stimulation
[5] = read-out: GDF8: inhibition of GDF8 signaling, GDF pSMAD (MPC11), p-SMAD3 (Ser423/425) AlphaScreen in cell lysate, GDF8 stimulation
[6] = read-out: TGF-β: inhibition of TGF-β signaling, TGF-β pSMAD (MPC-11), p-SMAD3 (Ser423/425) AlphaScreen in cell lysate, TGF-β stimulation

Structure (SMILES) | IC50 (GDF8; [3]) | IC50 (TGF-β; [4]) | also measured
Cc1ccccc1-c1nc2n(c1-c1ccc3ncsc3c1)CCC2 [Compound 305, 6-(2-(o-tolyl)-6,7-dihydro-5H-pyrrolo[1,2-a]imidazol-3-yl)benzo[d]thiazole] | – | – | IC50 (GDF8; [1]): 100 to 1000 nM; IC50 (TGF-β; [2]): > 1000 nM
Cc1ccccc1-c1nc2n(c1-c1ccc3nccnc3c1)CCC2 [Compound 306, 6-(2-(o-tolyl)-6,7-dihydro-5H-pyrrolo[1,2-a]imidazol-3-yl)quinoxaline] | – | – | IC50 (GDF8; [1]): > 1000 nM; IC50 (TGF-β; [2]): > 1000 nM
Cc1ccccc1-c1nc2n(c1-c1ccc3ncccc3c1)CCC2 [Compound 307, 6-(2-(o-tolyl)-6,7-dihydro-5H-pyrrolo[1,2-a]imidazol-3-yl)quinoline] | – | – | IC50 (GDF8; [1]): > 1000 nM; IC50 (TGF-β; [2]): > 1000 nM
Cc1cc(-c2nc3n(c2-c2ccc4[nH]ncc4c2)CCC3)c(C)cc1F [Compound 308, 5-(2-(4-fluoro-2,5-dimethylphenyl)-6,7-dihydro-5H-pyrrolo[1,2-a]imidaol-3-yl)-1H-indazole] | – | – | IC50 (GDF8; [1]): 100 to 1000 nM; IC50 (TGF-β; [2]): > 1000 nM
Cc1cc(-c2nc3n(c2-c2ccc4ncsc4c2)CCC3)c(C)cc1F [Compound 309, 6-(2-(4-fluoro-2,5-dimethylphenyl)-6,7-dihydro-5H-pyrrolo[1,2-a]imidazol-3-yl)benzo[d]thiazole] | 100 to 1000 nM | 100 to 1000 nM | –
Cc1cc(-c2nc3n(c2-c2ccc4nccnc4c2)CCC3)c(C)cc1F [Compound 310, 6-(2-(4-fluoro-2,5-dimethylphenyl)-6,7-dihydro-5H-pyrrolo[1,2-a]imidazol-3-yl)quinoxaline] | 100 to 1000 nM | > 1000 nM | –
Cc1cc(-c2nc3n(c2-c2ccc4ncccc4c2)CCC3)c(C)cc1F [Compound 311, 6-(2-(4-fluoro-2,5-dimethylphenyl)-6,7-dihydro-5H-pyrrolo[1,2-a]imidazol-3-yl)quinoline] | – | – | IC50 (GDF8; [1]): 100 to 1000 nM; IC50 (TGF-β; [2]): > 1000 nM
Cc1c(F)ccc(-c2nc3n(c2-c2ccc4[nH]ncc4c2)CCC3)c1Cl [Compound 312, 5-(2-(2-chloro-4-fluoro-3-methylphenyl)-6,7-dihydro-5H-pyrrolo[1,2-a]imidazol-3-yl)-1H-indazole] | > 1000 nM | > 1000 nM | –
Cc1c(F)ccc(-c2nc3n(c2-c2ccc4ncsc4c2)CCC3)c1Cl [Compound 313, 6-(2-(2-chloro-4-fluoro-3-methylphenyl)-6,7-dihydro-5H-pyrrolo[1,2-a]imidazol-3-yl)benzo[d]thiazole] | 100 to 1000 nM | 100 to 1000 nM | –
Cc1c(F)ccc(-c2nc3n(c2-c2ccc4nccnc4c2)CCC3)c1Cl [Compound 314, 6-(2-(2-chloro-4-fluoro-3-methylphenyl)-6,7-dihydro-5H-pyrrolo[1,2-a]imidazol-3-yl)quinoxaline] | – | – | IC50 (GDF8; [1]): > 1000 nM; IC50 (TGF-β; [2]): > 1000 nM
Cc1c(F)ccc(-c2nc3n(c2-c2ccc4ncccc4c2)CCC3)c1Cl [Compound 315, 6-(2-(2-chloro-4-fluoro-3-methylphenyl)-6,7-dihydro-5H-pyrrolo[1,2-a]imidazol-3-yl)quinoline] | > 1000 nM | > 1000 nM | –
Cc1cc(-c2nc3n(c2-c2ccc4[nH]ncc4c2)CCC3)c(Cl)cc1F [Compound 316, 5-(2-(2-chloro-4-fluoro-5-methylphenyl)-6,7-dihydro-5H-pyrrolo[1,2-a]imidazol-3-yl)-1H-indazole] | 100 to 1000 nM | 100 to 1000 nM | –
Cc1cc(-c2nc3n(c2-c2ccc4ncsc4c2)CCC3)c(Cl)cc1F [Compound 317, 6-(2-(2-chloro-4-fluoro-5-methylphenyl)-6,7-dihydro-5H-pyrrolo[1,2-a]imidazol-3-yl)benzo[d]thiazole] | – | – | IC50 (GDF8; [5]): 50 to 100 nM; IC50 (TGF-β; [6]): 100 to 1000 nM
Cc1cc(-c2nc3n(c2-c2ccc4nccnc4c2)CCC3)c(Cl)cc1F [Compound 318, 6-(2-(2-chloro-4-fluoro-5-methylphenyl)-6,7-dihydro-5H-pyrrolo[1,2-a]imidazol-3-yl)quinoxaline] | – | – | IC50 (GDF8; [5]): 50 to 100 nM; IC50 (TGF-β; [6]): 100 to 1000 nM
Cc1cc(-c2nc3n(c2-c2ccc4ncccc4c2)CCC3)c(Cl)cc1F [Compound 319, 6-(2-(2-chloro-4-fluoro-5-methylphenyl)-6,7-dihydro-5H-pyrrolo[1,2-a]imidazol-3-yl)quinoline] | – | > 1000 nM | IC50 (GDF8; [5]): 100 to 1000 nM
O=S(=O)(Nc1cccc(-c2nc3n(c2-c2ccc4[nH]ncc4c2)CCC3)c1)c1ccccc1F [Compound 320, N-(3-(3-(1H-indazol-5-yl)-6,7-dihydro-5H-pyrrolo[1,2-a]imidazol-2-yl)phenyl)-2-fluorobenzenesulfonamide] | > 1000 nM | > 1000 nM | –

Structure (SMILES) | IC50 (GDF8; [3]) | IC50 (TGF-β; [4]) | also measured
Cc1cc(-c2nc3n(c2-c2ccc4nccnc4c2)CCC3)c(Cl)cc1F [Compound 321, 6-(2-(2-chloro-4-fluoro-5-methylphenyl)-6,7-dihydro-5H-pyrrolo[1,2-a]imidazol-3-yl)quinoxaline] | – | – | IC50 (GDF8; [5]): > 1000 nM; IC50 (TGF-β; [6]): > 1000 nM
Cc1cc(-c2nc3n(c2-c2ccc4ncccc4c2)CCC3)c(Cl)cc1F [Compound 322, 6-(2-(2-chloro-4-fluoro-5-methylphenyl)-6,7-dihydro-5H-pyrrolo[1,2-a]imidazol-3-yl)quinoline] | – | – | IC50 (GDF8; [5]): > 1000 nM; IC50 (TGF-β; [6]): > 1000 nM
Cc1cc(-c2nc3n(c2-c2ccc4ncsc4c2)CCC3)c(Cl)cc1F [Compound 323, 6-(2-(2-chloro-4-fluoro-5-methylphenyl)-6,7-dihydro-5H-pyrrolo[1,2-a]imidazol-3-yl)benzo[d]thiazole] | – | – | IC50 (GDF8; [5]): > 1000 nM; IC50 (TGF-β; [6]): > 1000 nM
Fc1ccc(-c2nc3n(c2-c2ccc4[nH]ncc4c2)CC2(CCCC2)C3)cc1 [Compound 324, 2′-(4-fluorophenyl)-3′-(1H-indazol-5-yl)-5′H,7′H-spiro[cyclopentane-1,6′-pyrrolo[1,2-a]imidazole]] | > 1000 nM | > 1000 nM | –
Fc1ccc(-c2nc3n(c2-c2ccc4ncsc4c2)CC2(CCCC2)C3)cc1 [Compound 325, 6-(2′-(4-fluorophenyl)-5′H,7′H-spiro[cyclopentane-1,6′-pyrrolo[1,2-a]imidazol]-3′-yl)benzo[d]thiazole] | > 1000 nM | > 1000 nM | –
Fc1ccc(-c2nc3n(c2-c2ccc4nccnc4c2)CC2(CCCC2)C3)cc1 [Compound 326, 2′-(4-fluorophenyl)-3′-(quinoxalin-6-yl)-5′H,7′H-spiro[cyclopentane-1,6′-pyrrolo[1,2-a]imidazole]] | > 1000 nM | > 1000 nM | –
Fc1ccc(-c2nc3n(c2-c2ccc4ncccc4c2)CC2(CCCC2)C3)cc1 [Compound 327, 2′-(4-fluorophenyl)-3′-(quinolin-6-yl)-5′H,7′H-spiro[cyclopentane-1,6′-pyrrolo[1,2-a]imidazole]] | > 1000 nM | > 1000 nM | –
Cc1c(F)ccc(-c2nc3n(c2-c2ccc4[nH]ncc4c2)CCC3)c1C [Compound 328, 5-(2-(4-fluoro-2,3-dimethylphenyl)-6,7-dihydro-5H-pyrrolo[1,2-a]imidazol-3-yl)-1H-indazole] | 100 to 1000 nM | > 1000 nM | –
Cc1c(F)ccc(-c2nc3n(c2-c2ccc4ncsc4c2)CCC3)c1C [Compound 329, 6-(2-(4-fluoro-2,3-dimethylphenyl)-6,7-dihydro-5H-pyrrolo[1,2-a]imidazol-3-yl)benzo[d]thiazole] | 100 to 1000 nM | > 1000 nM | –
Cc1c(F)ccc(-c2nc3n(c2-c2ccc4nccnc4c2)CCC3)c1C [Compound 330, 6-(2-(4-fluoro-2,3-dimethylphenyl)-6,7-dihydro-5H-pyrrolo[1,2-a]imidazol-3-yl)quinoxaline] | > 1000 nM | > 1000 nM | –
Cc1c(F)ccc(-c2nc3n(c2-c2ccc4ncccc4c2)CCC3)c1C [Compound 331, 6-(2-(4-fluoro-2,3-dimethylphenyl)-6,7-dihydro-5H-pyrrolo[1,2-a]imidazol-3-yl)quinoline] | > 1000 nM | > 1000 nM | –
O=C(O)C1CCC2(CC1)Cc1nc(-c3ccc(F)cc3)c(-c3ccc4ncsc4c3)n1C2 (centres unmarked) [Compound 332, 3′-(benzo[d]thiazol-6-yl)-2′-(4-fluorophenyl)-5′H,7′H-spiro[cyclohexane-1,6′-pyrrolo[1,2-a]imidazole]-4-carboxylic acid] | 100 to 1000 nM | > 1000 nM | –
CCOC(=O)C1CCC2(CC1)Cc1nc(-c3ccc(F)cc3)c(-c3ccc4nccnc4c3)n1C2 (centres unmarked) [Compound 333, Ethyl 2′-(4-fluorophenyl)-3′-(quinoxalin-6-yl)-5′H,7′H-spiro[cyclohexane-1,6′-pyrrolo[1,2-a]imidazole]-4-carboxylate] | > 1000 nM | > 1000 nM | –
O=C(O)C1CCC2(CC1)Cc1nc(-c3ccc(F)cc3)c(-c3ccc4nccnc4c3)n1C2 (centres unmarked) [Compound 334, 2′-(4-fluorophenyl)-3′-(quinoxalin-6-yl)-5′H,7′H-spiro[cyclohexane-1,6′-pyrrolo[1,2-a]imidazole]-4-carboxylic acid] | > 1000 nM | > 1000 nM | –
OCC1CCC2(CC1)Cc1nc(-c3ccc(F)cc3)c(-c3ccc4ncsc4c3)n1C2 (centres unmarked) [Compound 335, (3′-(benzo[d]thiazol-6-yl)-2′-(4-fluorophenyl)-5′H,7′H-spiro[cyclohexane-1,6′-pyrrolo[1,2-a]imidazol]-4-yl)methanol] | > 1000 nM | > 1000 nM | –
